One series deals with normotensive dogs. As to the kind of experiment: Intraocular pressure and ocular surface hyperemia in normotensive dogs. In kind it is in vivo, dog. Also on record: maximum OSH score: scale not given here. The settings on record: 0.1%, once daily for 5 days. On the procedure:
(§1) (Z)-7-[(1R,2S,3R,5R)-5-Chloro-2-(3,5-dichloro-phenoxymethyl)-3-hydroxy-cyclopentyl]-hept-5-enoic acid (15b) was tested at multiple concentrations in normotensive dogs, dosing once daily for 5 days. At 0.05%, the maximum IOP decrease from baseline was 4.3 mmHg (30%) at 6 h; the maximum OSH score was 0.6 at 6 h. […] This compound was also tested in laser-induced hypertensive monkeys, using one single day dose. At 0.1%, the maximum IOP decrease from baseline was 6 mmHg (19%) at 6 h.
(§2) (Z)-7-[(1R,2S,3R,5R)-5-Chloro-2-(3,5-dichloro-phenoxymethyl)-3-hydroxy-cyclopentyl]-hept-5-enoic acid isopropyl ester (42b) was tested in normotensive dogs at 0.05%, dosing once daily for 5 days. The maximum intraocular pressure (IOP) decrease from baseline was 3 mmHg (19%) at 6 h; the maximum ocular surface hyperemia (OSH) score was 0.6 at 74 h. This compound was also tested in laser-induced hypertensive monkeys, using one single day dose. At 0.01%, the maximum IOP decrease from baseline was 6 mmHg (16%) at 6 h.

The test system of series [1] is laser-induced hypertensive monkeys. As to the kind of experiment: Intraocular pressure in laser-induced hypertensive monkeys. The class given is in vivo, monkey. As to conditions: 0.1%, one single day dose. As for the experimental part:
as §1, §2

Series [2] deals with T1, hEP2 (Homo sapiens, UniProt P43116). The series is described as follows: Competition binding, [3H]PGE2, human EP2 receptors. Also noted: expressed in transfected cells; host or cells: HEK 293. The settings on record: [3H]PGE2, HEK 293 cells stably expressing human EP2; read-out: hEP2 Ki. In outline:
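HEK 293 membranes or cells stably expressing human EP2 were incubated with 10 nM [3H]PGE2 and test compound in HBSS/20 mM Hepes pH 7.3, 60 min at 23° C, then filtered. Non-specific binding defined with 10 μM PGE2; IC50 from single-site fit converted to Ki using KD 40 nM.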

Series [3] concerns the target T2, hEP4 (Homo sapiens, UniProt P35408). The series is described as follows: Radioligand binding, EP4 receptor. Also noted: expressed in transfected cells; host or cells: HEK-293. As to conditions: [3H]PGE2, HEK-293 cells expressing EP4. An outline of the steps:
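HEK-293 membranes stably expressing human EP4, in TME buffer pH 7.4; competition vs 5 nM [3H]-PGE2, 60 min at 25 °C, stopped by GF/B filtration. Non-specific binding defined with 10^−5 M unlabeled PGE2; duplicates, at least three experiments.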

The target of series [4] is T1, hEP2. As to the kind of experiment: FLIPR calcium signal, hEP2. In kind it is cell-based. Also on record: expressed in transfected cells; host or cells: HEK-293(EBNA). As to conditions: HEK-293(EBNA) cells expressing hEP2/Gqs5. In outline:
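HEK-293(EBNA) cells stably expressing a single human prostaglandin receptor (hDP/Gqs5 chimera for DP), Fluo-4 AM loaded, in HBSS-HEPES pH 7.4 at 37 °C. Peak calcium fluorescence scaled to buffer and receptor standard agonist; 10^−5 M single-point or 10^−5–10^−11 M curves, duplicates, n≥3.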

Series [5] addresses T1, hEP2. As to the kind of experiment: cAMP assay, hEP2. The class given is cell-based.
For series [6], the target named is T2, hEP4. As to the kind of experiment: FLIPR calcium signal, hEP4. As to conditions: HEK-293(EBNA) cells expressing hEP4/Gqs5. Also on record: expressed in transfected cells; host or cells: HEK-293(EBNA). In kind it is cell-based. As for the experimental part: Methods for FLIPR™ Studies
HEK-293(EBNA) cells, stably expressing one type or subtype of recombinant human prostaglandin receptors (prostaglandin receptors expressed: hDP/Gqs5; hEP1; hEP2/Gqs5; hEP3A/Gqi5; hEP4/Gqs5; hFP; hIP; hTP), were cultured in 100 mm culture dishes in high-glucose DMEM medium containing 10% fetal bovine serum, 2 mM 1-glutamine, 250 μg/ml geneticin (G418) and 200 μg/ml hygromycin B as selection markers, and 100 units/ml penicillin G, 100 μg/ml streptomycin and 0.25 μg/ml amphotericin B.
Cells were seeded at a density of 5×10^4 cells per well in Biocoat® Poly-D-lysine-coated black-wall, clear-bottom 96-well plates (Becton-Dickinson) and allowed to attach overnight in an incubator at 37° C. Cells were then washed two times with HBSS-HEPES buffer (Hanks Balanced Salt Solution without bicarbonate and phenol red, 20 mM HEPES, pH 7.4) using a Denley Cellwash plate washer (Labsystems). After 45 minutes of dye-loading in the dark, using the calcium-sensitive dye Fluo-4 AM at a final concentration of 2 μM, plates were washed four times with HBSS-HEPES buffer to remove excess dye leaving 100 μl in each well. Plates were re-equilibrated to 37° C. for a few minutes.
Cells were excited with an Argon laser at 488 nm, and emission was measured through a 510-570 nm bandwidth emission filter (FLIPR™, Molecular Devices, Sunnyvale, Calif.). Drug solution was added in a 50 μl volume to each well to give the desired final concentration. The peak increase in fluorescence intensity was recorded for each well. On each plate, four wells each served as negative (HBSS-HEPES buffer) and positive controls (standard agonists: BW245C (hDP); PGE2 (hEP1; hEP2/Gqs5; hEP3A/Gqi5; hEP4/Gqs5); PGF2α (hFP); carbacyclin (hIP); U-46619 (hTP), depending on receptor). The peak fluorescence change in each drug-containing well was then expressed relative to the controls.
Compounds were tested in a high-throughput (HTS) or concentration-response (CoRe) format. In the HTS format, forty-four compounds per plate were examined in duplicates at a concentration of 10^−5 M. To generate concentration-response curves, four compounds per plate were tested in duplicates in a concentration range between 10^−5 and 10^−11 M. The duplicate values were averaged. In either, HTS or CoRe format each compound was tested on at least 3 separate plates using cells from different passages to give an n≧3.

pEC50, pKi: −log10 of the molar value.

T2 sequence (P35408 whole entry): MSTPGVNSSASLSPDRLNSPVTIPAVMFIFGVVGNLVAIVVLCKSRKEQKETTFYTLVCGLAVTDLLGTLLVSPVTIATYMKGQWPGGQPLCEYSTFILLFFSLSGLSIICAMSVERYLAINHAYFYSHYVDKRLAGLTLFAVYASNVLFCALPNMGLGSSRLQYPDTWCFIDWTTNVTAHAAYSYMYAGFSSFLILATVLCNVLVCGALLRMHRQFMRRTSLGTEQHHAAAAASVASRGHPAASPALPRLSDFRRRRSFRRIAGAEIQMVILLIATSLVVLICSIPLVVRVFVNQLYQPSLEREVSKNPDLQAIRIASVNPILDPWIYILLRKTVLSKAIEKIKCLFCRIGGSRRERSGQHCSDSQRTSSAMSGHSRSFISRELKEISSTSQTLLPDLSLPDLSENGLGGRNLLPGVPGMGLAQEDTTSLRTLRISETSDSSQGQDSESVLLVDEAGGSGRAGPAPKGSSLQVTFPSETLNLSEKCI
T1 sequence (P43116 whole entry): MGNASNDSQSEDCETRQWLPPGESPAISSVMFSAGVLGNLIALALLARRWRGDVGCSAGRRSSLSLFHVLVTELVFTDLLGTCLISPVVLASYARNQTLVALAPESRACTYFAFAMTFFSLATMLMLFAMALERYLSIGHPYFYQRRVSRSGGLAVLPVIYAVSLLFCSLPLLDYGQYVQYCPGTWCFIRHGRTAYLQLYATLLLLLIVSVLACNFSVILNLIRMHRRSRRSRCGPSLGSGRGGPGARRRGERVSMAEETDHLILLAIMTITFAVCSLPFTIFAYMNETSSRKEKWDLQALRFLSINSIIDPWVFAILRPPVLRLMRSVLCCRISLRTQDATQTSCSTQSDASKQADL

With `CC(C)OC(=O)CCC/C=C\C[C@@H]1[C@@H](COc2cccc(C(F)(F)F)c2)[C@H](O)C[C@H]1Cl` [Example 42i, (Z)-7-[(1R,2S,3R,5R)-5-Chloro-3-hydroxy-2-(3-trifluoromethyl-phenoxymethyl)-cyclopentyl]-hept-5-enoic acid isopropyl ester], in the series on normotensive dogs, the “maximum IOP decrease from baseline” value was determined as 2.7 mmHg, the “maximum OSH score” value amounted to 0.6, the “time of maximum IOP decrease” value was 2 h and the “time of maximum OSH score” value was 50 h. Moreover, the change in vivo at 0.1 % with normotensive dogs (Canis lupus familiaris, topical, 120 h, read-out: maximum IOP decrease from baseline) was found to be 19%. For the same molecule, in series [1], the “maximum IOP decrease from baseline” value stood at 4.7 mmHg and the “time of maximum IOP decrease” value is listed as 6 h. Also, the change in vivo at 0.1 % in series [1] (Primates, topical, read-out: maximum IOP decrease from baseline) is 14%.

For the molecule `O=C(O)CCC/C=C\C[C@@H]1[C@@H](COc2ccccc2CO)[C@H](O)C[C@H]1Cl` [Example 55, (Z)-7-[(1R,2S,3R,5R)-5-Chloro-3-hydroxy-2-(2-hydroxymethyl-phenoxymethyl)-cyclopentyl]-hept-5-enoic acid], the pKi is 5.39 on hEP2 [2] and 5.82 on hEP4 [3]. The pEC50 at hEP2 [4] was 5.02; at hEP2 [5], 6.65; on hEP4 [6], 4.91.

Take `CCCC(O)c1cccc(OC[C@@H]2[C@@H](C/C=C\CCCC(=O)O)[C@H](Cl)C[C@H]2O)c1` (stereo partly drawn) [Example 52, (Z)-7-{(1R,2S,3R,5R)-5-Chloro-3-hydroxy-2-[3-(1-hydroxy-butyl)-phenoxymethyl]-cyclopentyl}-hept-5-enoic acid]: the pKi is 6.02 at hEP2 [2] and < 5.00 on hEP4 [3]. Further, the pEC50 was 6.63 at hEP2 [4], 7.24 on hEP2 [5] and < 5.00 on hEP4 [6].

Regarding `CC(C)c1cccc(OC[C@@H]2[C@@H](C/C=C\CCCC(=O)O)[C@H](Cl)C[C@H]2O)c1` [Example 26, (Z)-7-[(1R,2S,3R,5R)-5-Chloro-3-hydroxy-2-(3-isopropyl-phenoxymethyl)-cyclopentyl]-hept-5-enoic acid], the results for the negative logarithm of the Ki (pKi) at hEP2 [2] and at hEP4 [3] were 6.82 and 6.01, respectively. Further, the values for the negative-log EC50 (pEC50) on hEP2 [4], on hEP2 [5] and at hEP4 [6] were 7.39, 8.15 and 5.19, respectively.

As for `O=C(O)CCC/C=C\C[C@@H]1[C@@H](COc2cccc(O)c2)[C@H](O)C[C@H]1Cl` [Example 30, (Z)-7-[(1R,2S,3R,5R)-5-Chloro-3-hydroxy-2-(3-hydroxy-phenoxymethyl)-cyclopentyl]-hept-5-enoic acid], the results for the negative-log Ki (pKi) on hEP2 [2] and at hEP4 [3] were 6.22 and 5.30, respectively. Moreover, the pEC50 was 6.95 at hEP2 [4], 7.62 at hEP2 [5] and 5.93 on hEP4 [6].

As to `O=C(O)CCC/C=C\C[C@@H]1[C@@H](COc2cc(C(F)(F)F)cc(Cl)c2F)[C@H](O)C[C@H]1Cl` [Example 41, (Z)-7-[(1R,2S,3R,5R)-5-Chloro-2-(3-chloro-2-fluoro-5-trifluoromethyl-phenoxymethyl)-3-hydroxy-cyclopentyl]-hept-5-enoic acid], the pKi was 7.80 on hEP2 [2] and 5.77 at hEP4 [3]. For the same molecule, the figures for the pEC50 on hEP2 [4], on hEP2 [5] and at hEP4 [6] were 7.89, 8.89 and < 5.00, respectively.

Turning to `O=C(O)CCC/C=C\C[C@@H]1[C@@H](COc2ccc(Cl)c3ccccc23)[C@H](O)C[C@H]1Cl` [Example 40, (Z)-7-[(1R,2S,3R,5R)-5-Chloro-2-(4-chloro-naphthalen-1-yloxymethyl)-3-hydroxy-cyclopentyl]-hept-5-enoic acid], the pKi on hEP2 [2] is 8.70; at hEP4 [3], 6.31. Also, the pEC50 at hEP2 [4] was 7.54; on hEP2 [5], 9.15; on hEP4 [6], 5.23.

With `O=C(O)CCC/C=C\C[C@@H]1[C@@H](COc2cccc3c2CCCC3O)[C@H](O)C[C@H]1Cl` (stereo partly drawn) [Example 60, (Z)-7-[(1R,2S,3R,5R)-5-Chloro-3-hydroxy-2-(5-hydroxy-5,6,7,8-tetrahydro-naphthalen-1-yloxymethyl)-cyclopentyl]-hept-5-enoic acid], the negative-log Ki (pKi) on hEP2 [2] is 7.07; at hEP4 [3] it was 5.84. Besides, the pEC50 is 7.77 on hEP2 [4], 9.00 at hEP2 [5] and 5.16 at hEP4 [6].

Take `O=C(O)CCCCCC[C@@H]1[C@@H](COc2cccc3ccccc23)[C@H](O)C[C@H]1Cl` [Example 20, (Z)-7-[(1R,2S,3R,5R)-5-Chloro-3-hydroxy-2-(naphthalen-1-yloxymethyl)-cyclopentyl]-heptanoic acid]: the pKi on hEP2 [2] was 6.79; at hEP4 [3], 6.45. Moreover, the pEC50 at hEP2 [4] is 7.09; at hEP2 [5] it was 7.55; at hEP4 [6] it was 5.56.

Take `CC(C)(C)c1cccc(OC[C@@H]2[C@@H](C/C=C\CCCC(=O)O)[C@H](Cl)C[C@H]2O)c1` [Example 27, (Z)-7-[(1R,2S,3R,5R)-2-(3-tert-Butyl-phenoxymethyl)-5-chloro-3-hydroxy-cyclopentyl]-hept-5-enoic acid]: the pKi at hEP2 [2] is 6.30; on hEP4 [3], 6.04. Further, the pEC50 is 6.72 at hEP2 [4], 7.27 at hEP2 [5] and 4.80 on hEP4 [6].

With `O=C(O)CCC/C=C\C[C@@H]1[C@@H](COc2cc(Cl)cc(CO)c2)[C@H](O)C[C@H]1Cl` [Example 65, (Z)-7-[(1R,2S,3R,5R)-5-Chloro-2-(3-chloro-5-hydroxymethyl-phenoxymethyl)-3-hydroxy-cyclopentyl]-hept-5-enoic acid], the pKi is 7.19 on hEP2 [2] and 6.30 at hEP4 [3]. Besides, the pEC50 on hEP2 [4] was 6.28; on hEP2 [5], 8.70; at hEP4 [6] it was 4.97.

With `O=C(O)CCC/C=C\C[C@@H]1[C@@H](COc2cccc(Cl)c2)[C@H](O)C[C@H]1Cl` [Example 22, (Z)-7-[(1R,2S,3R,5R)-5-Chloro-2-(3-chloro-phenoxymethyl)-3-hydroxy-cyclopentyl]-hept-5-enoic acid], the pKi at hEP2 [2] is 7.37; at hEP4 [3], < 5.00. Besides, the pEC50 at hEP2 [4] was 7.74; on hEP2 [5], 8.30; on hEP4 [6], 6.08.

Values taken from US7405240B2, “Substituted cyclopentanes or cyclopentanones as therapeutic agents” (Allergan, Inc., priority 2006, dated 2008).
